According to patent US6780641B2, “Immortalized human microglia cell line” (University of British Columbia, priority 2000, dated 2004):
“Also recorded” adds a separate entry of the source.

Columns and labels:
HMO6.A1 cells [1] = experiment: Fura-2 Ca2+ fluorescence in HMO6.A1 cells; type: cell-based, human; conditions: ATP 100 μM; ionomycin 10 μM after ATP perfusion; n=7 cells
Method: The cultured HMO6.Al cells were loaded for 25 min with the Ca^2+ indicator fura-2-acetoxymetethylester (fura-2AM). The dye was applied with pleuronic acid (both at concentrations of 1 μM) to normal physiological solution (PSS) at room temperature (20-22° C.). Following a 5 min wash in dye-free solution, the coverslips were placed on the stage of a Zeiss Axiovert inverted microscope containing a ×40 quartz objective lens. Alternating excitation wavelengths (340/380 nm) of UV light were applied at intervals of 8 s and fluorescence signals were obtained at 510 nm of emission light (bandwidth of 4 nm) from 8-20 cells in the field of view. Signals were acquired from a digital camera (DVC-1310, DVC Co., Austin, Tex.) and were processed using an imaging system (Empix, Mississauga, ON) to determine ratios of the 340 nm and 380 nm intensities which have been used as quantitative measures of fluorescence levels in this work.
All studies were done at room temperature (20-22° C.) and values obtained from multiple cells are reported as mean ±SEM with statistical significance for p≦0.05 using the Student's t-test.
The purinergic agonist ATP (at 100 μM) was applied to HMO6.A1 cells using calcium sensitive fluorescence microscopy. The results from a representative experiment are presented by FIGS. 3A and 3B which show an ATP-induced increase in [Ca^2+]i from n=7 cells. […]

HMO6.A1 cells [2] = experiment: RT-PCR analysis of gene expression in agent stimulated HMO6.A1 cells; type: cell-based, human; conditions: for P2Y2 receptor expression / B7-2 mRNA expression: HMO6.A1, RT-PCR; for B7-2 mRNA expression: 24 hr incubation; for Stimulated HMO6 cell expressed active substance(s): RT-PCR, agent stimulated HMO6 cells
Description: The information of Table E1 is provided merely as a convenience to the reader and utilizes conventional gene sequences.
Sense and antisense primers of each primer pair given by Table E1 were set at a different exon, respectively, to avoid DNA contamination. To assess the character of HMO6.A1 cells, the expression of cytokines (IL-1β, -2, -3, -4, -5, -6, -7, -8, -9, -10, -11, -12, -13, -15, and TNF-α), chemokines (macrophage inflammatory protein (MIP)-1α, MIP-1β, and monocyte chemoattractant protein (MCP)-1) was examined by RT-PCR. Total RNA was extracted using Trizol reagent (GIBCO-BRL, Gaithersburg, Md.). Complimentary DNA (cDNA) templates from each sample were prepared from 2 μg of total RNA primed with oligo dT primers (Pharmacia, Gaithersburg, Md.) using 400 units of MMLV reverse transcriptase (GIBCO-BRL) followed by 25 PCR amplification cycles (94° C. for 30 seconds, annealing at 60° C. for 60 seconds, and extension at 72° C. for 90 seconds). This cycle number allowed a linear cDNA dose-response. Glyceraldehyde-3-phosphate dehydrogenase (G3PDH) was used as a reaction standard [Ercolani et al., J. Biol. Chem. 263: 15335-15341 ([…])].
To confirm the purity of cell preparation, cDNA from microglia-enriched cultures were amplified for B7-2 (CD86, for microglia); GFAP (a cell type-specific marker for astrocytes); myelin basic protein (MBP, for oligodendrocytes); and neurofilament-M (NF-M, for neurons). For characterization of HMO6.A1 cells, mRNA expression of marker proteins specific for each cell type was also investigated. Gene expression of CD68, P2Y1 purinergic receptor (P2Y1R), P2Y2R, CXCR4 which are expressed in embryonic human microglia (HM) was also examined in HMO6.A1 cells. […] of each PCR product was analyzed by 1.5% agarose gel electrophoresis. Authentic bands were determined by selective enzyme digestion.
[…] LPS at 100 ng/ml was used in microglial cultures since LPS is a potent activator of microglia [Gebicke-Haeter et al., J. Neurosci. 9: 187-194 (1989); Suzumura et al., Brain Res. 545: 301-306 (1991)].

[3] = test system: embryonic human microglia; experiment: GM-CSF stimulated proliferation of embryonic human microglia; type: cell-based; conditions: GM-CSF 8 μg/ml for 9-12 days
Method: It is also desirable that, for the last part of this time, microglia are exposed to granulocyte macrophage colony stimulating factor (GM-CSF) at final concentration of 8 ug/ml for 9-12 days with a medium change every 3 days. GM-CSF treatment stimulated proliferation of microglia results in a 3-4 fold increase in microglial population.
As illustrated by FIG. 1, an amphotropic replication-incompetent retroviral vector encoding v-myc oncogene (transcribed from mouse leukemia virus LTR plus neomycin-resistant gene transcribed from a SV40 early promotor) was used to infect human microglia inducing propagation of immortalized human microglial cell lines. This amphotropic vector, PASK 1.2, was generated using the ecotropic retroviral vector encoding v-myc (obtained from the American Type Culture Collection, Rockville, Md.) to infect PA318 amphotropic packaging cell line. Microglia were exposed to granulocyte macrophage colony stimulating factor (GM-CSF) at final concentration of 8 μg/ml for 9-12 days with medium change every 3 days. GM-CSF treatment stimulated proliferation of microglia resulting in 3-4 folds increase in population. Microglia treated with GM-CSF for 9-12 days were subjected to retrovirally mediated transduction of v-myc by PASK 1.2 construct and subsequent cloning.

[4] = test system: normal human microglial cells; experiment: ELISA of cytokines/chemokines released from normal human microglia (HM); type: cell-based; conditions: for IL-6 levels in the culture supernatant: cell type (HM or HMO6.A1) not given; for levels of IL-8 in the supernatant: versus non-treated controls
Method: (§1) Production of TNF-α, IL-1β, IL-6, IL-8 or MIP-1α in normal human microglial cells or HMO6.A1 cells was determined in spent culture supernatants using ELISA kits specific for human TNF-α, IL-1β, IL-6, IL-8 or MIP-1α (R&D Systems, capable of detecting TNF-α at 4.4 pg/ml, IL-1β at 1 pg/ml, IL-6 at 0.70 pg/ml, IL-8 at 10 pg/ml and MIP-1α at 10 pg/ml). At the end of each experiment, culture supernatants were collected, centrifuged, and stored at −70° C.
(§2) FIGS. 6A-6E are graphs presenting ELISA analyses of cytokines and chemokines released from normal human microglia and HMO6 immortalized human microglia cell line. Cells were plated in 6-well plates, stimulated for 48 hours with or without 20 ug/ml β-amyloid or 10 ng/ml LPS, and then cytokine/chemokine production in spent media was measured. Values represent mean±SEM from 3 experiments.

[5] = test system: embryonic human microglia (HM); experiment: RT-PCR analysis of gene expression in embryonic human microglia (HM) after Aβ25-35/LPS; type: cell-based; conditions: 6 hr
HMO6.A1 cells [6] = experiment: ELISA of cytokines/chemokines released from HMO6.A1 cells; type: cell-based, human; conditions: for MIP-1α amount of release / levels of IL-8 in the supernatant: HMO6.A1, 48 hours; for levels of IL-8 in the supernatant: versus non-treated controls
Method: as §1, §2

[7] = HMO6, treatment time not stated

Nc1ncnc2c1ncn2[C@@H]1O[C@H](COP(=O)(O)OP(=O)(O)OP(=O)(O)O)[C@@H](O)[C@H]1O [ATP]
[Ca2+]i response (HMO6.A1 cells [1]): increase; also recorded: rapid and transient

C[C@H](CCC(=O)O)C[C@H](C)C[C@H](C)C(=O)/C=C(\O)[C@H](C)C[C@H](C)C/C=C/[C@@H](C)[C@@H](O)[C@@H](C)[C@@H](O)C[C@@H]1CC[C@@](C)([C@H]2CC[C@@](C)([C@@H](C)O)O2)O1 [ionomycin]
[Ca2+]i response (HMO6.A1 cells [1]): considerably larger than the ATP-induced response

GM-CSF: granulocyte-macrophage colony-stimulating factor (GIBCO-BRL)
P2Y2 receptor expression (HMO6.A1 cells [2]): expressed | B7-2 mRNA expression (HMO6.A1 cells [2]): not | increase in microglial population [3]: 3-4 fold

IL-1β: Recombinant human IL-1β (10 ng/ml, R&D Systems)
P2Y2 receptor expression (HMO6.A1 cells [2]): expressed | B7-2 mRNA expression (HMO6.A1 cells [2]): not | Stimulated HMO6 cell expressed active substance(s) (HMO6.A1 cells [2]): None

NH2-GSNKGAIIGLM-COOH (H-GSNKGAIIGLM-OH) [Aβ25-35]
CXCR4 expression (HMO6.A1 cells [2]; HMO6.A1, 6 hr): increased | IL-1β expression (HMO6.A1 cells [2]; HMO6.A1, 6 hr): no change | IL-6 expression (HMO6.A1 cells [2]; HMO6.A1, 6 hr): no change | IL-8 mRNA expression (HMO6.A1 cells [2]; HMO6.A1, 6 hr): elevated | IL-10 expression (HMO6.A1 cells [2]; HMO6.A1, 6 hr): not detected | IL-12 expression (HMO6.A1 cells [2]; HMO6.A1, 6 hr): elevated | MCP mRNA expression (HMO6.A1 cells [2]; HMO6.A1, 6 hr): elevated | MIP-1α mRNA expression (HMO6.A1 cells [2]; HMO6.A1, 6 hr): not expressed | MIP-1β expression (HMO6.A1 cells [2]; HMO6.A1, 6 hr): No change | TNF-α expression (HMO6.A1 cells [2]; HMO6.A1, 6 hr incubation): not induced | TNF-α expression (HMO6.A1 cells [2]; HMO6.A1, after 24 hr): induced | TNF-α expression (HMO6.A1 cells [2]; HMO6.A1, after 24 hr, listed as Aβ): detected; also recorded: induced | Stimulated HMO6 cell expressed active substance(s) (HMO6.A1 cells [2]; Elevated IL-12 expression): Elevated IL-12 | Stimulated HMO6 cell expressed active substance(s) (HMO6.A1 cells [2]; TNF-α expression): TNF-α | IL-6 levels in the culture supernatant ([4]; 48 hours stimulation): not increased | MIP-1α levels ([4]; HM, 48 hours): elevated | release of IL-1β into culture medium ([4]; HM, 48 hours stimulation): demonstrated | TNF-α production (ELISA) ([4]; HM, 48 hours stimulation, spent media): marked increase | levels of IL-8 in the supernatant ([4]; HM, 48 hours): greater | IL-1β expression [5]: slightly increased | IL-4 expression [5]: not recognized | IL-8 mRNA [5]: up-regulated | IL-10 expression [5]: increased | IL-12 expression [5]: elevated | IL-13 expression [5]: not recognized | MCP mRNA [5]: up-regulated | MIP-1α mRNA [5]: up-regulated | MIP-1β mRNA [5]: up-regulated | TNF-α expression [5]: markedly elevated | MIP-1α amount of release (HMO6.A1 cells [6]): very low | TNF-α production (ELISA) (HMO6.A1 cells [6]; HMO6.A1, 48 hours stimulation, spent media): marked increase | levels of IL-8 in the supernatant (HMO6.A1 cells [6]): greater

TNF-α
Expression of MIP-1α (HMO6.A1 cells [2]; [7]): newly induced | Expression of TNF-α (HMO6.A1 cells [2]; [7]): newly induced | MIP-1α expression (HMO6.A1 cells [2]; HMO6.A1, 24 hr treatment): detected; also recorded: induced | P2Y2 receptor expression (HMO6.A1 cells [2]): induced; also recorded: expressed | B7-2 mRNA expression (HMO6.A1 cells [2]): induced; also recorded: expressed | TNF-α gene expression (HMO6.A1 cells [2]; HMO6.A1, treatment for 4 hr): recognized; also recorded: induced | Stimulated HMO6 cell expressed active substance(s) (HMO6.A1 cells [2]; MIP-1α expression): MIP-1α | Stimulated HMO6 cell expressed active substance(s) (HMO6.A1 cells [2]; TNF-α expression): TNF-α

lipopolysaccharide [LPS]
CXCR4 expression (HMO6.A1 cells [2]; HMO6.A1, 6 hr): increased | TNF-α expression (HMO6.A1 cells [2]; HMO6.A1, 6 hr incubation): not induced | P2Y2 receptor expression (HMO6.A1 cells [2]): expressed | B7-2 mRNA expression (HMO6.A1 cells [2]): not | TNF-α expression (HMO6.A1 cells [2]; HMO6.A1, after 24 hr): induced | IL-6 levels in the culture supernatant ([4]; 48 hours stimulation): increased | release of IL-1β into culture medium ([4]; HM, 48 hours stimulation): demonstrated | levels of IL-8 in the supernatant ([4]; HM, 48 hours): greater | MIP-1α amount of release (HMO6.A1 cells [6]): very low | levels of IL-8 in the supernatant (HMO6.A1 cells [6]): greater

B1: IFN-γ: recombinant human IFN-γ (500 IU/ml, LG Chem) (protein, UniProt P01579 24-161, looked up)
Interferon gamma: QDPYVKEAENLKKYFNAGHSDVADNGTLFLGILKNWKEESDRKIMQSQIVSFYFKLFKNFKDDQSIQKSVETIKEDMNVKFFNSNKKKRDDFEKLTNYSVTDLNVQRKAIHELIQVMAELSPAAKTGKRKRSQMLFRG
P2Y2 receptor expression (HMO6.A1 cells [2]): expressed | B7-2 mRNA expression (HMO6.A1 cells [2]): not
